Source: ChEMBL document CHEMBL1201862, “PubChem BioAssay data set” (2004)
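Results reflect a 48-hour exposure of cells in 96-well plates to compound at five concentrations. GI50 = concentration required for 50% inhibition of growth.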 Activity calls are given as the source filed them. Rule as the data show it: active = GI50 up to about 1.1 µM and inactive = higher.

What was measured:
Assay in all cases: NCI-60 cell line screen, 48 h
COLO 205 = tested on: COLO 205
HCC 2998 = tested on: HCC 2998
K562 = tested on: K562
UACC-257 = tested on: UACC-257
UO-31 = tested on: UO-31
SR = tested on: SR
MDA-MB-231 = tested on: MDA-MB-231
RPMI-8226 = tested on: RPMI-8226
Malme-3M = tested on: Malme-3M
EKVX = tested on: EKVX
CAKI-1 = tested on: CAKI-1
HOP-62 = tested on: HOP-62
PC-3 = tested on: PC-3
SW-620 = tested on: SW-620
RXF 393 = tested on: RXF 393
HCT-116 = tested on: HCT-116
UACC-62 = tested on: UACC-62
786-0 = tested on: 786-0
OVCAR-4 = tested on: OVCAR-4
HT-29 = tested on: HT-29
SK-MEL-2 = tested on: SK-MEL-2
MDA-MB-435 = tested on: MDA-MB-435
MCF7 = tested on: MCF7
OVCAR-3 = tested on: OVCAR-3
NCI-H23 = tested on: NCI-H23
HCT-15 = tested on: HCT-15
OVCAR-5 = tested on: OVCAR-5
DU-145 = tested on: DU-145
A498 = tested on: A498
BT-549 = tested on: BT-549
LOX IMVI = tested on: LOX IMVI
OVCAR-8 = tested on: OVCAR-8
U-251 = tested on: U-251
NCI-H226 = tested on: NCI-H226
TK-10 = tested on: TK-10
KM12 = tested on: KM12
IGROV-1 = tested on: IGROV-1
SNB-19 = tested on: SNB-19
ACHN = tested on: ACHN
SF-539 = tested on: SF-539
SK-OV-3 = tested on: SK-OV-3
M14 = tested on: M14
SF-295 = tested on: SF-295
NCI-H460 = tested on: NCI-H460
A549 = tested on: A549
SK-MEL-5 = tested on: SK-MEL-5
SK-MEL-28 = tested on: SK-MEL-28
T47D = tested on: T47D
SF-268 = tested on: SF-268
NCI/ADR-RES = tested on: NCI/ADR-RES
NCI-H522 = tested on: NCI-H522
HL-60 = tested on: HL-60
SN12C = tested on: SN12C
SNB-75 = tested on: SNB-75
MOLT-4 = tested on: MOLT-4
CCRF-CEM = tested on: CCRF-CEM
HOP-92 = tested on: HOP-92
Hs-578T = tested on: Hs-578T

CC12CCC(/C(=N/c3ccc([N+](=O)[O-])cc3)C1=O)C2(C)C (stereo not given)
GI50 (COLO 205): 19.4 µM (inactive)
GI50 (HCC 2998): 17.4 µM (inactive)
GI50 (K562): 19 µM (inactive)
GI50 (UACC-257): 32.4 µM (inactive)
GI50 (UO-31): 17.8 µM (inactive)
GI50 (SR): 22.5 µM (inactive)
GI50 (MDA-MB-231): 18.3 µM (inactive)
GI50 (RPMI-8226): 20.1 µM (inactive)
GI50 (Malme-3M): 13.9 µM (inactive)
GI50 (EKVX): 20.1 µM (inactive)
GI50 (CAKI-1): 19.3 µM (inactive)
GI50 (HOP-62): 25.2 µM (inactive)
GI50 (PC-3): 24.5 µM (inactive)
GI50 (SW-620): 23.3 µM (inactive)
GI50 (RXF 393): 13.9 µM (inactive)
GI50 (HCT-116): 19.1 µM (inactive)
GI50 (UACC-62): > 100 µM (inactive)
GI50 (786-0): 16.8 µM (inactive)
GI50 (OVCAR-4): 13.1 µM (inactive)
GI50 (HT-29): 21 µM (inactive)
GI50 (SK-MEL-2): 19 µM (inactive)
GI50 (MDA-MB-435): 17.1 µM (inactive)
GI50 (MCF7): > 100 µM (inactive)
GI50 (OVCAR-3): 21.4 µM (inactive)
GI50 (NCI-H23): 31.6 µM (inactive)
GI50 (HCT-15): 24.6 µM
GI50 (OVCAR-5): 51.5 µM (inactive)
GI50 (DU-145): 25.7 µM (inactive)
GI50 (A498): > 100 µM (inactive)
GI50 (BT-549): 36.6 µM (inactive)
GI50 (LOX IMVI): 14.7 µM (inactive)
GI50 (OVCAR-8): 23 µM (inactive)
GI50 (U-251): 24.9 µM (inactive)
GI50 (NCI-H226): > 100 µM (inactive)
GI50 (TK-10): 16.9 µM (inactive)
GI50 (KM12): 19.9 µM (inactive)
GI50 (IGROV-1): 25.1 µM (inactive)
GI50 (SNB-19): 33.4 µM (inactive)
GI50 (ACHN): > 100 µM (inactive)
GI50 (SF-539): 18.2 µM (inactive)
GI50 (SK-OV-3): 28.4 µM (inactive)
GI50 (M14): 27.9 µM (inactive)
GI50 (SF-295): 27.1 µM (inactive)
GI50 (NCI-H460): 25.6 µM (inactive)
GI50 (A549): 36.1 µM (inactive)
GI50 (SK-MEL-5): 26.2 µM (inactive)
GI50 (SK-MEL-28): 12 µM (inactive)
GI50 (T47D): 16.3 µM (inactive)
GI50 (SF-268): 20.3 µM (inactive)
GI50 (NCI/ADR-RES): 23.3 µM (inactive)

CC(=O)OCC12CN(C#N)C3C4COC(CC41)C1(C(=O)N(C)c4ccccc41)C32 (stereo not given)
GI50 (COLO 205): 16.7 µM (inactive)
GI50 (HCC 2998): 28.2 µM (inactive)
GI50 (K562): 14.8 µM (inactive)
GI50 (UACC-257): 16.9 µM (inactive)
GI50 (UO-31): 13.3 µM (inactive)
GI50 (NCI-H522): 12.1 µM (inactive)
GI50 (SR): 14.6 µM (inactive)
GI50 (MDA-MB-231): 13.4 µM (inactive)
GI50 (HL-60): 11.2 µM (inactive)
GI50 (RPMI-8226): 9.73 µM (inactive)
GI50 (Malme-3M): 21 µM (inactive)
GI50 (EKVX): 20.7 µM (inactive)
GI50 (CAKI-1): 17.3 µM (inactive)
GI50 (HOP-62): 24.6 µM (inactive)
GI50 (PC-3): 33.2 µM (inactive)
GI50 (SW-620): 22 µM (inactive)
GI50 (SN12C): 20.3 µM (inactive)
GI50 (SNB-75): 26.5 µM (inactive)
GI50 (RXF 393): 12.1 µM (inactive)
GI50 (HCT-116): 19.3 µM (inactive)
GI50 (UACC-62): 22.6 µM (inactive)
GI50 (786-0): 28.3 µM (inactive)
GI50 (OVCAR-4): 16.1 µM (inactive)
GI50 (HT-29): 33 µM (inactive)
GI50 (SK-MEL-2): 24.9 µM (inactive)
GI50 (MDA-MB-435): 26.8 µM (inactive)
GI50 (MOLT-4): 7.48 µM (inactive)
GI50 (MCF7): 19.3 µM (inactive)
GI50 (OVCAR-3): 3.58 µM (inactive)
GI50 (NCI-H23): 15.6 µM (inactive)
GI50 (HCT-15): 17.1 µM
GI50 (OVCAR-5): 33.4 µM (inactive)
GI50 (CCRF-CEM): 11.8 µM (inactive)
GI50 (DU-145): 15.4 µM (inactive)
GI50 (BT-549): 2.64 µM (inactive)
GI50 (LOX IMVI): 20.6 µM (inactive)
GI50 (HOP-92): 19.7 µM (inactive)
GI50 (OVCAR-8): 19.5 µM (inactive)
GI50 (U-251): 56.1 µM (inactive)
GI50 (NCI-H226): 15.8 µM (inactive)
GI50 (Hs-578T): 18.2 µM (inactive)
GI50 (TK-10): 20.4 µM (inactive)
GI50 (KM12): 36.5 µM (inactive)
GI50 (IGROV-1): 24 µM (inactive)
GI50 (ACHN): 14.3 µM (inactive)
GI50 (SK-OV-3): 34.4 µM (inactive)
GI50 (M14): 20.2 µM (inactive)
GI50 (SF-295): 49.1 µM (inactive)
GI50 (NCI-H460): 31.3 µM (inactive)
GI50 (A549): 28.4 µM (inactive)
GI50 (SK-MEL-5): 26.7 µM (inactive)
GI50 (SK-MEL-28): 19.2 µM (inactive)
GI50 (T47D): 18.8 µM (inactive)
GI50 (SF-268): 29.1 µM (inactive)
GI50 (NCI/ADR-RES): 22.2 µM (inactive)

O=C(O)/C(=C/C(=O)c1ccc(Cl)cc1)NNc1ccc([N+](=O)[O-])cc1[N+](=O)[O-]
GI50 (COLO 205): > 100 µM (inactive)
GI50 (HCC 2998): 59.8 µM (inactive)
GI50 (K562): 36.9 µM (inactive)
GI50 (UACC-257): > 100 µM (inactive)
GI50 (UO-31): 20.8 µM (inactive)
GI50 (NCI-H522): 21.6 µM (inactive)
GI50 (SR): 50.9 µM (inactive)
GI50 (MDA-MB-231): 36.8 µM (inactive)
GI50 (HL-60): 49.3 µM (inactive)
GI50 (RPMI-8226): 28.5 µM (inactive)
GI50 (Malme-3M): 30.5 µM (inactive)
GI50 (EKVX): > 100 µM (inactive)
GI50 (CAKI-1): 24.8 µM (inactive)
GI50 (HOP-62): 28.4 µM (inactive)
GI50 (PC-3): 36.2 µM (inactive)
GI50 (SN12C): 41.8 µM (inactive)
GI50 (HCT-116): 19.6 µM (inactive)
GI50 (UACC-62): 38.7 µM (inactive)
GI50 (786-0): 27 µM (inactive)
GI50 (OVCAR-4): 19.7 µM (inactive)
GI50 (HT-29): 64.1 µM (inactive)
GI50 (SK-MEL-2): 31.7 µM (inactive)
GI50 (MDA-MB-435): 67.9 µM (inactive)
GI50 (MOLT-4): 42 µM (inactive)
GI50 (MCF7): 52.4 µM (inactive)
GI50 (OVCAR-3): 33.3 µM (inactive)
GI50 (NCI-H23): 44.1 µM (inactive)
GI50 (HCT-15): 48.3 µM
GI50 (OVCAR-5): 82.8 µM (inactive)
GI50 (CCRF-CEM): 23.6 µM (inactive)
GI50 (DU-145): 47.2 µM (inactive)
GI50 (A498): > 100 µM (inactive)
GI50 (BT-549): 23.2 µM (inactive)
GI50 (LOX IMVI): 75.3 µM (inactive)
GI50 (HOP-92): 22.9 µM (inactive)
GI50 (OVCAR-8): 29.5 µM (inactive)
GI50 (U-251): 47.9 µM (inactive)
GI50 (NCI-H226): 23.7 µM (inactive)
GI50 (Hs-578T): 31.2 µM (inactive)
GI50 (TK-10): 57.5 µM (inactive)
GI50 (KM12): 51.8 µM (inactive)
GI50 (IGROV-1): 66.7 µM (inactive)
GI50 (SNB-19): 43.4 µM (inactive)
GI50 (ACHN): 31.8 µM (inactive)
GI50 (SF-539): 35.3 µM (inactive)
GI50 (SK-OV-3): 35.6 µM (inactive)
GI50 (M14): 42.1 µM (inactive)
GI50 (SF-295): 41.4 µM (inactive)
GI50 (NCI-H460): 34.3 µM (inactive)
GI50 (A549): 40.6 µM (inactive)
GI50 (SK-MEL-5): > 100 µM (inactive)
GI50 (SK-MEL-28): 43.5 µM (inactive)
GI50 (T47D): 55.5 µM (inactive)
GI50 (SF-268): 38.7 µM (inactive)
GI50 (NCI/ADR-RES): 45.8 µM (inactive)
